Measurements: patent publication US11634447B2 (priority 2012, dated 2023)
Several values for one entry are separate records, joined by “and”; a condition that tells them apart may be missing. Equal values may be shown once.

Tests used:
[1] = biological target: T1, FimH-CRD (Escherichia coli, UniProt P08191); assay: Competitive binding assay by fluorescence polarization, assay 1 (compounds prepared by manual dilution); set-up: species or system E. coli
T1 construct: The first 177 amino acids of the FimH protein are expressed as a fusion protein; thrombin tag (printed as 'fusion protein with thrombin') (cleaved yes); made in house; host or cells: bacteria (pET21b plasmid)
T1 sequence (P08191 22-177): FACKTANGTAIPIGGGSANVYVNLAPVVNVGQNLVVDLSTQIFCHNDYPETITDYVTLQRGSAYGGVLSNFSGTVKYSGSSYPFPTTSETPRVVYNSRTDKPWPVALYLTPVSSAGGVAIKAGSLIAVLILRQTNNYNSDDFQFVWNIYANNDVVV
Experimental: (§1) The first 177 amino acids of the FimH protein are expressed as a fusion protein with thrombin in a pET21b plasmid in bacteria. This FimH protein sequence contains the carbohydrate recognition domain (CRD) and shall be termed FimH-CRD. Following bacterial expression of the protein, the FimH-CRD protein is purified to homogeneity and the thrombin tag removed by protease cleavage. A competitive binding assay by fluorescence polarization is performed using 5 nM of the Alexa 647 mannoside probe and 60 nM of the FimH-CRD. The samples are assayed in a low volume 384 well microtiter plate in a final volume of 20 μl. The final assay buffer conditions are the following, 50 mM Tris-Cl, ph 7.0, 100 mM NaCl, 1 mM EDTA, 5 mM β-mercaptoethanol, 0.05% BSA and 2.5% DMSO. Two assays are performed for FimH, termed assay 1 or assay 2. The assay conditions are the same for both assays except the following: assay 1 has compounds prepared by manual dilution in a serial dilution factor with 12-point dose response while assay 2 has compounds prepared by a robotics system also through a serial dilution factor (12 point dose response) and initially prepared in duplicate in 384 well-Corning polypropylene round bottom plates. The assay 2 plates have compound which is then frozen and must be thawed prior to use. Initially the Alexa 647 probe and the FimH-CRD are added to the assay buffer and then 0.5 μl of test compound (assay 1 or 2) between 0.4 nM to 75 μM final concentration are added (12 point titration with 3-fold serial dilution). Control wells for the Alexa 647 probe are prepared with the same conditions except for the addition of the FimH-CRD protein. Plates are then incubated for 5 hrs at room temperature in the dark and under humid conditions to prevent drying. Plates are read using the SpectraMax Paradigm multi-mode plate reader and the appropriate fluorescent polarization detection cartridge (Alexa-647).
(§2) Alexa 647 mannoside probe is prepared using the similar procedure reported for FAM mannoside (Han, Z. et. al., 2010, J. Med. Chem., 53, 4779) and is described in the scheme below.
(§3) To a blue colored stirred solution of (2S,3S,4S,5S,6R)-2-(4-aminobutoxy)-6-(hydroxymethyl)tetrahydropyran-3,4,5-triol (2.21 mg, 0.009 mmol) and the (2E)-2-[(2E,4E)-5-[3,3-dimethyl-5-sulfonato-1-(3-sulfonatopropyl)indol-1-ium-2-yl]penta-2,4-dienylidene]-3-[6-(2,5-dioxopyrrolidin-1-yl)oxy-6-oxo-hexyl]-3-methyl-1-(3-sulfonatopropyl)indoline-5-sulfonate (Potassium Ion (3)) (4.9 mg, 0.0044 mmol) in DMF (44 μL) is added Et3N (5.4 mg, 7.0 μL, 0.053 mmol) at RT. The solution is stirred at room temperature over night, concentrated, dissolved in water and purified on 12 g C-18 silica gel cartridge on Isolera system using acetonitrile in water (0 to 40%, 10 CV) and followed by lyophilization to afford Alexa 647 mannoside probe (3.3 mg, 34%) as deep blue solid.
(§4) The Kd values of the compounds are determined from dose response curves using twelve concentrations per compound in duplicate. Curves are fitted to data points using Fluorescence Polarization competitive displacement analysis, and Kds are interpolated from the resulting curves using GraphPad Prism software, version […] (GraphPad software Inc., San Diego, Calif., USA).

[2] = test system: bacterial strain LF82 binding to the glycoprotein BSA-(Mannose)3; assay: Bacterial Binding Assay (BBA); type: cell-based, Escherichia coli; conditions: read-out: Bacterial Binding Assay IC50, LF82/Luciferase strain binding to BSA-(Man)3 coated plates, luminescence
Summary of the method: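 Inhibition of LF82/luciferase E. coli adhesion is read as luminescence after washing off unbound cells. Compound and bacteria (10^7 per well) are co-incubated 40-75 min at room temperature on wells coated with 0.5-2 μg/mL BSA-(Man)3, with BSA-only wells as background; IC50 values derived.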

[3] = biological target: T1, FimH-CRD; assay: Competitive binding assay by fluorescence polarization, assay 2 (compounds prepared by a robotics system, plates frozen and thawed); set-up: species or system E. coli; conditions: Assay 2 Kd, 5 nM Alexa 647 mannoside probe, 60 nM FimH-CRD, replicate values in one cell
Experimental: as §1, §2, §3, §4

[4] = Assay 1 Kd, 5 nM Alexa 647 mannoside probe, 60 nM FimH-CRD, replicate values in one cell
[5] = read-out: Assay 1 Kd, 5 nM Alexa 647 mannoside probe, 60 nM FimH-CRD, replicate values in one cell

Structure (SMILES) | Kd [1, 4] | IC50 [2] [nM] | Kd [1, 5] [nM] | Kd [3]
OC[C@H]1O[C@H](n2cc(-c3cccc(-c4cn([C@H]5O[C@H](CO)[C@@H](O)[C@H](O)[C@@H]5O)nn4)c3)nn2)[C@@H](O)[C@@H](O)[C@@H]1O [Compound 19, ((2R,3S,4S,5S,6S)-2-(Hydroxymethyl)-6-[4-[3-[1-[(2S,3S,4S,5S,6R)-3,4,5-trihydroxy-6-(hydroxymethyl)tetrahydropyran-2-yl]triazol-4-yl]phenyl]triazol-1-yl]tetrahydropyran-3,4,5-triol)] | 6 nM and < 5 nM | 430 | – | –
OC[C@H]1O[C@H](C/C=C/c2ccc(/C=C/C[C@H]3O[C@H](CO)[C@@H](O)[C@H](O)[C@@H]3O)cc2)[C@@H](O)[C@@H](O)[C@@H]1O [Compound 24, ((2R,3S,4R,5S,6R)-2-(Hydroxymethyl)-6-[(E)-3-[4-[(E)-3-[(2R,3S,4R,5S,6R)-3,4,5-trihydroxy-6-(hydroxymethyl)tetrahydropyran-2-yl]prop-1-enyl]phenyl]allyl]tetrahydropyran-3,4,5-triol)] | < 5 nM | 650 | < 5 | –
COC(=O)c1cc(/C=C/C[C@H]2O[C@H](CO)[C@@H](O)[C@H](O)[C@@H]2O)ccc1/C=C/C[C@H]1O[C@H](CO)[C@@H](O)[C@H](O)[C@@H]1O [Compound 26, (Methyl 2,5-bis[(E)-3-[(2R,3S,4R,5S,6R)-3,4,5-trihydroxy-6-(hydroxymethyl)tetrahydropyran-2-yl]prop-1-enyl]benzoate)] | < 5 nM | 850 | < 5 | –
Cc1cc(/C=C/C[C@H]2O[C@H](CO)[C@@H](O)[C@H](O)[C@@H]2O)ccc1/C=C/C[C@H]1O[C@H](CO)[C@@H](O)[C@H](O)[C@@H]1O [Compound 27, ((2R,3S,4R,5S,6R)-2-(Hydroxymethyl)-6-[(E)-3-[3-methyl-4-[(E)-3-[(2R,3S,4R,5S,6R)-3,4,5-trihydroxy-6-(hydroxymethyl)tetrahydropyran-2-yl]prop-1-enyl]pheny]allyl]tetrahydropyran-3,4,5-triol)] | < 5 nM | 800 | < 5 | –
OC[C@H]1O[C@H](C/C=C/c2ccc(/C=C/C[C@H]3O[C@H](CO)[C@@H](O)[C@H](O)[C@@H]3O)c(F)c2)[C@@H](O)[C@@H](O)[C@@H]1O [Compound 28] | < 5 nM | 770 | < 5 | –
OC[C@H]1O[C@H](C/C=C/c2ccc(/C=C/C[C@H]3O[C@H](CO)[C@@H](O)[C@H](O)[C@@H]3O)c(Cl)c2)[C@@H](O)[C@@H](O)[C@@H]1O [Compound 29, ((2R,3S,4R,5S,6R)-2-[(E)-3-[3-Chloro-4-[(E)-3-[(2R,3S,4R,5S,6R)-3,4,5-trihydroxy-6-(hydroxymethyl)tetrahydropyran-2-yl]prop-1-enyl]phenyl]allyl]-6-(hydroxymethyl)tetrahydropyran-3,4,5-triol)] | 6 nM and 8 nM | 1300 | – | –
COc1cc(/C=C/C[C@H]2O[C@H](CO)[C@@H](O)[C@H](O)[C@@H]2O)c(OC)cc1/C=C/C[C@H]1O[C@H](CO)[C@@H](O)[C@H](O)[C@@H]1O [Compound 30, ((2R,3S,4R,5S,6R)-2-[(E)-3-[2,5-Dimethoxy-4-[(E)-3-[(2R,3S,4R,5S,6R)-3,4,5-trihydroxy-6-(hydroxymethyl)tetrahydropyran-2-yl]prop-1-enyl]phenyl]allyl]-6-(hydroxymethyl)tetrahydropyran-3,4,5-triol)] | 7 nM and < 5 nM | 300 | – | –
O=[N+]([O-])c1cc(/C=C/C[C@H]2O[C@H](CO)[C@@H](O)[C@H](O)[C@@H]2O)ccc1/C=C/C[C@H]1O[C@H](CO)[C@@H](O)[C@H](O)[C@@H]1O [Compound 32, ((2R,3S,4R,5S,6R)-2-(Hydroxymethyl)-6-[(E)-3-[3-nitro-4-[(E)-3-[(2R,3S,4R,5S,6R)-3,4,5-trihydroxy-6-(hydroxymethyl)tetrahydropyran-2-yl]prop-1-enyl]phenyl]allyl]tetrahydropyran-3,4,5-triol)] | < 5 nM | 340 | < 5 | –
N#Cc1cc(/C=C/C[C@H]2O[C@H](CO)[C@@H](O)[C@H](O)[C@@H]2O)ccc1/C=C/C[C@H]1O[C@H](CO)[C@@H](O)[C@H](O)[C@@H]1O [Compound 33, (2,5-Bis[(E)-3-[(2R,3S,4R,5S,6R)-3,4,5-trihydroxy-6-(hydroxymethyl)tetrahydropyran-2-yl]prop-1-enyl]benzonitrile)] | < 5 nM | 390 | < 5 | –
CC(=O)N[C@@H]1[C@@H](O)[C@H](O)[C@@H](CO)O[C@H]1n1cc([C@H]2O[C@H](CO)[C@@H](O)[C@H](O)[C@@H]2O)nn1 [Compound 45, (N-[(2R,3R,4R,5S,6R)-4,5-Dihydroxy-6-(hydroxymethyl)-2-[4-[(2R,3S,4R,5S,6R)-3,4,5-trihydroxy-6-(hydroxymethyl)tetrahydropyran-2-yl]triazol-1-yl]tetrahydropyran-3-yl]acetamide)] | – | – | – | 707 nM and 576 nM and 558 nM and 591 nM
OC[C@H]1O[C@H](c2ccc([C@H]3O[C@H](CO)[C@@H](O)[C@H](O)[C@@H]3O)s2)[C@@H](O)[C@@H](O)[C@@H]1O [Compound 46, ((2R,3S,4S,5S,6S)-2-(Hydroxymethyl)-6-[5-[(2S,3S,4S,5S,6R)-3,4,5-trihydroxy-6-(hydroxymethyl)tetrahydropyran-2-yl]-2-thienyl]tetrahydropyran-3,4,5-triol)] | – | – | – | 11 nM and 9 nM and 16 nM and 14 nM
OC[C@H]1O[C@H](c2csc([C@H]3O[C@H](CO)[C@@H](O)[C@H](O)[C@@H]3O)c2)[C@@H](O)[C@@H](O)[C@@H]1O [Compound 47, ((2R,3S,4R,5S,6R)-2-(Hydroxymethyl)-6-[5-[(2S,3S,4S,5S,6R)-3,4,5-trihydroxy-6-(hydroxymethyl)tetrahydropyran-2-yl]-3-thienyl]tetrahydropyran-3,4,5-triol)] | – | – | – | 44 nM and 37 nM and 51 nM and 36 nM
O=C(C[C@H]1O[C@H](CO)[C@@H](O)[C@H](O)[C@@H]1O)Nc1cccc(NC(=O)C[C@H]2O[C@H](CO)[C@@H](O)[C@H](O)[C@@H]2O)c1 [Compound 48, (2-[(2R,3S,4R,5S,6R)-3,4,5-Trihydroxy-6-(hydroxymethyl)tetrahydropyran-2-yl]-N-[3-[[2-[(2R,3S,4R,5S,6R)-3,4,5-trihydroxy-6-(hydroxymethyl)tetrahydropyran-2-yl]acetyl]amino]phenyl]acetamide)] | – | – | – | 79 nM and 50 nM and 63 nM
O=C(C[C@H]1O[C@H](CO)[C@@H](O)[C@H](O)[C@@H]1O)NCc1ccc(CNC(=O)C[C@H]2O[C@H](CO)[C@@H](O)[C@H](O)[C@@H]2O)cc1 [Compound 49, (2-[(2R,3S,4R,5S,6R)-3,4,5-Trihydroxy-6-(hydroxymethyl)tetrahydropyran-2-yl]-N-[[4-[[[2-[(2R,3S,4R,5S,6R)-3,4,5-trihydroxy-6-(hydroxymethyl)tetrahydropyran-2-yl]acetyl]amino]methyl]phenyl]methyl]acetamide)] | – | – | – | 149 nM and 87 nM
OC[C@H]1O[C@H](c2cccc(C#CC#Cc3cccc([C@H]4O[C@H](CO)[C@@H](O)[C@H](O)[C@@H]4O)c3)c2)[C@@H](O)[C@@H](O)[C@@H]1O [Compound 50, ((2R,3S,4R,5S,6R)-2-(Hydroxymethyl)-6-[3-[4-[3-[(2R,3S,4R,5S,6R)-3,4,5-trihydroxy-6-(hydroxymethyl)tetrahydropyran-2-yl]phenyl]buta-1,3-diynyl]phenyl]tetrahydropyran-3,4,5-triol)] | – | 950 | – | 9 nM and < 5 nM (2×)
